The source of these data is ChEMBL document CHEMBL1139153, “Comparison of the in vitro apparent permeability and stability of opioid mimetic compounds with that of the native peptide” (Bioorg Med Chem Lett, 2007).

A short description of the series: Apparent permeability from apical to basolateral side of human Caco-2 cell membrane. The series is classed as ADME, cell-based.
As a reminder, the Papp A→B is the apparent permeability from the apical to the basolateral side of a cell layer. For `Cc1cc(O)cc(C)c1CC(N)C(=O)NCCCCNC(=O)C(N)Cc1c(C)cc(O)cc1C` (centres undefined), the Papp A→B stood at 0.139 ×10⁻⁶ cm/s.

With `Cc1cc(O)cc(C)c1CC(N)C(=O)NCCCCc1nc(O)c(CCCCNC(=O)C(N)Cc2c(C)cc(O)cc2C)nc1C` (centres undefined), the Papp A→B is 0.845 ×10⁻⁶ cm/s.

As to `Cc1cc(O)cc(C)c1CC(N)C(=O)NCCCc1nc(O)c(CCCNC(=O)C(N)Cc2c(C)cc(O)cc2C)nc1C` (centres undefined), the Papp A→B worked out at 0.547 ×10⁻⁶ cm/s.

Consider `NC(=O)[C@H](Cc1ccccc1)NC(=O)[C@H](Cc1ccccc1)NC(=O)[C@@H]1CCCN1C(=O)[C@@H](N)Cc1ccc(O)cc1` [ENDOMORPHIN 2], for which the Papp A→B is 0.0643 ×10⁻⁶ cm/s.
